Laboratory results reported in US7528148B2, “Pyrazolo[3,4-B]pyridine compounds, and their use as phosphodiesterase inhibitors” (Glaxo Group Limited, priority 2002, dated 2009).

Molecular target: T1, PDE4B (human recombinant) (Homo sapiens, UniProt Q07343)
T1 construct: made in house; host or cells: Saccharomyces cerevisiae strain GL62 (PDE-deficient)
Experiment: PDE4B inhibition, radioactive SPA or IMAP fluorescence polarisation (FP) assay
Format: biochemical
Details: one reading or average of ca. 2-6 readings, accurate only to about ±0.5 log unit, read-out: PDE4B pIC50 (±about 0.5) (converted)
Source text: Human recombinant PDE4B, in particular the 2B splice variant thereof (HSPDE4B2B), is disclosed in WO 94/20079 and also M. M. McLaughlin et al., “A low Km, rolipram-sensitive, cAMP-specific phosphodiesterase from human brain: cloning and expression of cDNA, biochemical characterisation of recombinant protein, and tissue distribution of mRNA”, J. Biol. Chem., 1993, 268, 6470-6476. Human recombinant PDE4B was expressed in the PDE-deficient yeast Saccharomyces cerevisiae strain GL62. 100,000×g supernatant fractions of yeast cell lysates were used for PDE4B assays and inhibitor studies.
The ability of compounds to inhibit catalytic activity at PDE4B or 4D (human recombinant), PDE3 (from bovine aorta) or PDE5 (human recombinant) or PDE6 (from bovine retina) was determined by Scintillation Proximity Assay (SPA) in 96-well format. Test compounds (preferably as a solution in DMSO, e.g. about 2 microlitre (ul) volume of DMSO solution) were preincubated at ambient temperature (room temperature, e.g. 19-23° C.) in Wallac Isoplates (code 1450-514) with PDE enzyme in 50 mM Tris-HCl buffer pH 7.5, 8.3 mM MgCl2, 1.7 mM EGTA, 0.05% (w/v) bovine serum albumin for 10-30 minutes (usually 30 minutes). The enzyme concentration was adjusted so that no more than 20% hydrolysis of the substrate defined below occurred in control wells without compound, during the incubation. For PDE3, PDE4B and PDE4D assays, [5′,8-^3H]Adenosine 3′,5′-cyclic phosphate (Amersham Pharmacia Biotech, code TRK.559; or Amersham Biosciences UK Ltd, Pollards Wood, Chalfont St Giles, Buckinghamshire HP8 4SP, UK) was added to give 0.05 uCi per well and ˜10 nM final concentration. For the PDE5 and PDE6 assay [8-^3H]Guanosine 3′,5′-cyclic phosphate (Amersham Pharmacia Biotech, code TRK.392) was added to give 0.05 uCi per well and ˜36 nM final concentration. Plates, preferably containing approx. 100 ul volume of assay mixture, were mixed on an orbital shaker for 5 minutes and incubated at ambient temperature for 1 hour. Phosphodiesterase SPA beads (Amersham Pharmacia Biotech, code RPNQ 0150) were added (˜1 mg per well) to terminate the assay. Plates were sealed and shaken and allowed to stand at ambient temperature for 35 minutes to 1 hour (preferably 35 minutes) to allow the beads to settle. Bound radioactive product was measured using a WALLAC TRILUX 1450 Microbeta scintillation counter. For inhibition curves, 10 concentrations ([…]) of each compound were assayed. Curves were analysed using ActivityBase and XLfit (ID Businesss Solutions Limited, 2 Ocean Court, Surrey Research Park, Guildford, Surrey GU2 7QB, United Kindgom) Results were expressed as pIC50 values.
The ability of compounds to inhibit catalytic activity at PDE4B (human recombinant) or PDE4D (human recombinant) was determined by IMAP Fluorescence Polarisation (FP) assay (IAP Explorer kit, available from Molecular Devices Corporation, Sunnydale, Calif., USA; Molecular Devices code: R8062) in 384-well format. The IMAP FP assay is able to measure PDE activity in an homogenous, non-radioactive assay format. The FP assay uses the ability of immobilised trivalent metal cations, coated onto nanoparticles (tiny beads), to bind the phosphate group of Fl-AMP that is produced on the hydrolysis of fluorescein-labelled (Fl) cyclic adenosine mono-phosphate (Fl-cAMP) to the non-cyclic Fl-AMP form. […] Binding of Fl-AMP product to the beads (coated with the immobilised trivalent cations) slows the rotation of the bound Fl-AMP and leads to an increase in the fluorescence polarisation ratio of parallel to perpendicular light. Inhibition of the PDE reduces/inhibits this signal increase. […]

T1 sequence (Q07343 1-564 isoform Q07343-2): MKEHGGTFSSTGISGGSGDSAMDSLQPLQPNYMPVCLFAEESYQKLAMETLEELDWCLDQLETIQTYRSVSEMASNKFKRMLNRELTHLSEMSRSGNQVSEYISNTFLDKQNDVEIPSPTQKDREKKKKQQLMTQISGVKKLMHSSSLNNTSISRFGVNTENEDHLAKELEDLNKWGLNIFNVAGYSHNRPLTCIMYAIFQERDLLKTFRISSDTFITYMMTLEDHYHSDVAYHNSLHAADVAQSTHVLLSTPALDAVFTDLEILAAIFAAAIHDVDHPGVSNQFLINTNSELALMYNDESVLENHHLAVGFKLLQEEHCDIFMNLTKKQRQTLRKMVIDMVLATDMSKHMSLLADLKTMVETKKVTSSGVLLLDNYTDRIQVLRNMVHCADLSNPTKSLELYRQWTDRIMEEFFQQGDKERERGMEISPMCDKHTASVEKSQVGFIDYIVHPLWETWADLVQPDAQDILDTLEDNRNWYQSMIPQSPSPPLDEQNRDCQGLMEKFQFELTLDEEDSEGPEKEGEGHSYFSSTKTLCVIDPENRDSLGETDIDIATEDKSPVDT

`CCn1ncc2c(NC3CCOCC3)c(-c3nnc(C)o3)cnc21` [Example 14, 1-Ethyl-5-(5-methyl-1,3,4-oxadiazol-2-yl)-N-(tetrahydro-2H-pyran-4-yl)-1H-pyrazolo[3,4-b]pyridin-4-amine] was tested, and the IC50 was 25.1 nM.

Work on `CCn1ncc2c(NC3CCOCC3)c(-c3nnc(C(C)(C)C)o3)cnc21` [Example 17, 5-(S-Tert-butyl-1,3,4-oxadiazol-2-yl)-1-ethyl-N-(tetrahydro-2H-pyran-4-yl)-1H-pyrazolo[3,4-b]pyridin-4-amine] yielded an IC50 of 0.794 to 31.6 nM.

Compound `CCn1ncc2c(NC3CCOCC3)c(-c3nnc(CS(C)(=O)=O)o3)cnc21` [Example 23, 1-Ethyl-5-{5-[(methylsulfonyl)methyl]-1,3,4-oxadiazol-2-yl}-N-(tetrahydro-2H-pyran-4-yl)-1H-pyrazolo[3,4-b]pyridin-4-amine] has an IC50 of 7.94 nM.

For `CCn1ncc2c(NC3CCOCC3)c(-c3nnc(CN4CCN(C)CC4)o3)cnc21` [Example 35, 1-Ethyl-5-{5-[(4-methylpiperazin-1-yl)methyl]-1,3,4-oxadiazol-2-yl}-N-(tetrahydro-2H-pyran-4-yl)-1H-pyrazolo[3,4-b]pyridin-4-amine], the IC50 was 31.6 nM.

`CCn1ncc2c(NC3CCOCC3)c(-c3nnc(C4CCOCC4)o3)cnc21` [Example 38, 1-Ethyl-N-(tetrahydro-2H-pyran-4-yl)-5-[5-(tetrahydro-2H-pyran-4-yl)-1,3,4-oxadiazol-2-yl]-1H-pyrazolo[3,4-b]pyridin-4-amine] gave an IC50 of 0.794 to 31.6 nM.
